The values below come from US8562974B2, “Method for expanding Cd4+ Cd25+ T regulator cells” (Fondazione Telethon, priority 2005, dated 2013).

The subject of assay [1] is CD4^+ T cells. In words: In vitro treatment of CD4+ T cells with rapamycin: CD4+CD25+ Tr cell content. It is filed as cell-based. Particulars: in vitro treatment of CD4+ T cells (5-10% Tr cells at start).
The test system of assay [2] is DO11.10 tg CD4^+ T cells. The assay can be described thus: Activation induced cell death (AICD) by annexin V binding, FACS. The class given is cell-based, mice. The settings on record: APC+OVA, 100 nM rapamycin, 24 and 72 hours, vs control cells. Here is the method:
(§1) 1×10^6 CD4^+ T cells isolated from spleen of DO11.10 tg mice were stimulated with 4×10^6 APC from Balb/c mice (i.e. total splenocytes irradiated 3000 Rad) and 0.6 μM OVA323-339peptide (OVA) (Primm, Milano, Italy). Three rounds of stimulation of 7 days each were performed. IL-2 (BD Biosciences) was added starting from the second round of stimulation at 50 U/ml. Alternatively, 1×10^6 CD4^+ T cells isolated from spleen of Balb/c mice were stimulated with coated 10 μg/ml of αCD3 and soluble 1 μg/ml of αCD28 mAbs (BD Biosciences). Cells were cultured in the presence of medium alone or 100 nM rapamycin (Sigma, St Louis, Mo.). Three rounds of stimulation of 7 days each were performed. IL-2 (BD Biosciences) was added starting from the second round of stimulation at 50 U/ml. In separate experiments, sorted CD4^+CD25^+ T cells isolated from spleen of Balb/c mice were stimulated with coated 10 μg/ml of αCD3, soluble 1 μg/ml of αCD28 mAbs (BD Biosciences) and 1000 U/ml of IL-2. Cells were cultured in the presence of medium alone or 100 nM rapamycin (Sigma, St Louis, Mo.). 1000 U/ml of IL-2 was added at the beginning of each new stimulation.
In more detail, DO11.10 tg CD4^+ T cells were cultured with APC+OVA (medium) or APC+OVA+rapamycin (rapamycin) and AICD was monitored by FACs after 24 and 72 hours of culture. Percentage of PI^+-annexinV^+ cells is indicated in each dot plot.

The subject of assay [3] is DO11.10 tg CD4^+ T cells. In words: Fold expansion of T cells over three rounds of APC+OVA stimulation, direct cell counts. It is filed as cell-based, mice. On the procedure:
as §1
Fold expansion of T cells was determined after each round of stimulation. […] Rapamycin binds to FKBP12 and the formed complex inhibits the function of mTOR, which is involved in a broad range of physiological processes linked to the control of cell-cycle. […]

Assay [4] deals with DO11.10 tg CD4^+ T cells. In words: Re-stimulation without compound after 3 rounds, CFSE dilution (anergy). The class given is cell-based, mice. Particulars: after 3 rounds with rapamycin, re-stimulated with APC+OVA without rapamycin and IL-2, 5 days. On the procedure: The proportion of CFSE^+ cells proliferating in vitro was calculated as described elsewhere (Lyons 1994). Briefly, the number of cells (events) in a given cycle (division: n) was divided by 2 raised to power n, to calculate the percentage of original precursor cells from which they arose. The sum of original precursors from division 1 to 6 represents the number of precursors cells which proliferated. The percent of CFSE^+ divided cells was calculated by [(# of precursors that proliferated1-6/# of total precursors0-6)×100].
In more detail in relation to FIG. 1C, after 3 rounds of stimulation with APC+OVA (medium) or APC+OVA+rapamycin (rapamycin), DO11.10 tg CD4^+T cells were stained with CFSE and re-stimulated with APC+OVA in the absence of the compound and of exogenous IL-2. CFSE dilution was monitored 5 days after activation.

Assay [5] concerns DO11.10 tg CD4^+ T cells. In words: Cell size by FACS (FSC vs SSC) after 3 rounds of stimulation. It is filed as cell-based, mice. The settings on record: 3 weeks activation with rapamycin, one week rest with IL-2 50 U/ml. Here is the method: After 3 rounds of stimulation with APC+OVA (medium) or APC+OVA+rapamycin (rapamycin), DO11.10 tg CD4^+ T cells were left resting for one additional week with no further stimulation in the presence of IL-2 (50 U/ml). At the end of the seven days cell size was analyzed by FACS by plotting FSC vs SSC parameters. Small (continuous line) and big (dotted line) cells are circled. Naïve CD4^+ T cells from a DO11.10 tg mouse were used as control.
(Flow cytometry measures light scatter and fluorescence of single cells or particles in a stream.)

Assay [6] relates to DO11.10 tg CD4^+ T cells. In words: CD4+CD25bright T cell content after 3 rounds of stimulation, FACS. The class given is cell-based, mice. On the procedure:
(§2) Cells were stained with the indicated Abs (all from BD Biosciences, Mountain View, Calif.), and were analyzed with a FACScan flow cytometer equipped with CellQuest software (BD Biosciences). To obtain highly purified CD4^+CD25^+/− T cells, CD4^+ T cells were first purified from splenocytes isolated from Balb/c mice by positive selection with αCD4 mAb-coated microbeads (Miltenyi Biotec, Bergisch Gladbach, Germany). Thereafter, CD4^+ T cells were stained with Cy-coupled αCD4 and PE-coupled αCD25 mAbs (BD Biosciences) and CD4^+CD25^+ T cells were sorted by FACS-sorting on a FAC-Star (BD Biosciences).
as §1, with “Cells were cultured in the presence of medium alone or 100 nM rapamycin (Sigma, St Louis, Mo.). 1000 U/ml of IL-2 was added at the beginning of each new stimulation.” left out
After 3 rounds of stimulation with APC+OVA (medium) or APC+OVA+rapamycin (rapamycin), DO11.10 tg CD4^+ T cells were left resting for one week with no further stimulation in the presence of IL-2 (50 U/ml). After seven days cells were analyzed by FACS. […]
1×10^6 DO11.10 tg CD4^+ T cells (containing 70.000 CD4^+CD25^bright T cells) were cultured with APC+OVA (medium, white bar) or APC+OVA+rapamycin (dotted bar, rapamycin). After 3 rounds of stimulation, the total number of CD4^+CD25^brightT cells was determined by FACS.

Assay [7] deals with Balb/c CD4^+CD25^+ T cells. The assay can be described thus: Culture of sorted CD4+CD25+ T cells with αCD3+αCD28+1000 U/ml IL-2: fold expansion and CD25bright content. The class given is cell-based, mice. On the procedure:
as §2
as §1, with “stimulation. […]” for “stimulation.”
Fold expansion of Balb/c CD4^+CD25^+ T cells 1, 2, and 3 weeks after culture in the presence of αCD3+αCD28+1000 U/ml IL-2 (medium, white bars) or αCD3+αCD28+1000 U/ml IL-2+rapamycin (rapamycin, dotted bars) was evaluated by direct cell counts. […] After seven days, cells were analyzed by FACS. […]

Assay [8] has as its system NOD CD4^+ T cells. In words: Ex vivo expansion of NOD CD4+ T cells with rapamycin: regulatory markers. The class given is cell-based. Particulars: pre-diabetic 11 week old NOD mice, three rounds of stimulation. Here is the method:
CD4^+ T cells were obtained by incubation of splenocytes from pre-diabetic or diabetic NOD mice with αCD4 mAb-coated microbeads and applied onto MiniMacs columns (Miltenyi Biotec). The average purity was 95%. 1×10^6 CD4^+ T cells isolated from spleen of NOD mice were stimulated with coated 10 μg/ml of αCD3 and soluble 1 μg/ml of αCD28 mAbs (BD Biosciences). Cells were cultured in the presence of medium alone or 100 nM rapamycin (Sigma, St Louis, Mo.). Three rounds of stimulation of 7 days each were performed. IL-2 (BD Biosciences) was added starting from the second round of stimulation at 100 U/ml.
In this Example, we attempted to generate ex vivo Tr cells from non obese diabetic (NOD) mice. Spontaneously autoimmune diabetes in NOD mice mainly results from quantitative and qualitative changes in autoaggressive T effector cells. Older mice indeed harbor diabetogenic T cells that are progressively less prone to Tr cells-mediated inhibition (You et al. Diabetes, 2005). We tested whether rapamycin could expand functional Tr cells from NOD mice and whether these expanded T cells have a regulatory function. CD4^+ T cells were isolated from the spleen of pre-diabetic 11 week old NOD mice and were activated in vitro with anti-CD3 and CD28 mAbs in the presence of medium or rapamycin.

In assay [9] the test system is CD4^+ T cells isolated from PBMCs. The assay can be described thus: TCR-mediated proliferation and anergy of human CD4+ T cells, CFSE. The class given is cell-based. Here is the method: CD4^+ T cells isolated from PBMCs of healthy subjects or T1D patients were activated with plate bound anti-CD3 (10 μg/ml) and soluble of anti-CD28 (1 μg/ml) mAbs (BD Biosciences). Cells were cultured in the presence of medium (x-vivo 10) alone or with 100 nM rapamycin (Sigma, St Louis, Mo.). Three round of stimulations of 7 days each were performed. IL-2 (BD Biosciences) was added starting from the second round of stimulation at 100 U/ml.
CD4^+ T cells were stained with CFSE either at the beginning of the culture (1st week), or at the end of one (2nd week), or three (4th week) round of stimulations. CFSE^+ CD4^+ T cells were activated in vitro in the presence of anti-CD3+anti-CD28 mAbs in the presence or absence of 100 nM rapamycin. CFSE dilution was monitored 7 days after activation.
After 3 round of stimulations with anti-CD3+anti-CD28 mAbs (T medium) or anti-CD3+anti-CD28 mAbs+rapamycin (T rapamycin), CD4^+ T cells were stained with CFSE and re-stimulated with anti-CD3+anti-CD28 mAbs in the absence of the compound and of exogenous IL-2. CFSE dilution was monitored 7 days after activation. Numbers indicate the percentage of dividing cells.

Assay [10] deals with CD4^+CD25^− and CD4^+CD25^+ T cells. In words: Proliferation of sorted CD4+CD25- and CD4+CD25+ T cells with anti-CD3+anti-CD28+IL-2, CFSE. Particulars: 100 nM rapamycin, 7 days. It is filed as cell-based, human. On the procedure: CD4^+CD25^− and CD4^+CD25^bright T cells were FACS sorted. Subsequently, sorted CD4^+CD25^− T cells were stained with CSFE and sorted CD4^+CD25^+ T cells were added back to the same amount present in unsorted CD4^+ T cells (5%) (FIG. 13, left panel). Alternatively, sorted CD4^+CD25^+ T cells were stained with CSFE and sorted CD4^+CD25^− T cells were added back to the same amount present in unsorted CD4^+ T cells (95%) (right panel of FIG. 13). The two distinct CFSE stained cell populations were activated with anti-CD3+anti-CD28 mAbs+IL-2 in the presence or absence of 100 nM rapamycin. CFSE dilution was monitored 7 days after activation. Numbers indicate the percentage of CFSE^+ dividing cells.

Assay [11] concerns FOXP3 mRNA. The assay can be described thus: FOXP3 quantitative PCR. The settings on record: CD4+ T cells exposed to rapamycin.
Description: Total RNA was extracted with Eurozol (Euroclone, Switzerland), and cDNA was synthesized with High Capacity cDNA Archive Kit (Applied Biosystems, New Jersey, USA). Levels of FOXP3 mRNA was quantified using Assay on Demand real-time PCR kits (Applied Biosystems, New Jersey, USA) with TaqMan Universal PCR Master Mix (Applied Biosystems, New Jersey, USA). Levels of 18s rRNA was quantified as internal control by using TaqMan PDAR Eukaryotic 18s Endogenus Controls (Applied Biosystems, assay ID: Mm00475156m1). Samples were run in duplicate, and relative expression of FOXP3 was determined by normalizing to 18 s expression in each set of samples in order to calculate a fold-change in value.
To address this question, CD4^+ T cells depleted of the CD25^+ Tr cells were cultured for three weeks in the presence or absence of rapamycin. […] The cultured cells were added in equal number to naïve KJ1-26^+CFSE^+ cells (10^5:10^5) and proliferation was monitored by CFSE dilution. […] Relative levels of mRNA FOXP3 were determined by real time quantitative RT-PCR in CD4^+ (left panel) or CD4^+CD25^− (right panel) T cells repetitively activated in vitro with or without rapamycin. The amounts of FOXP3 mRNA are expressed as relative to that in splenocytes depleted of CD4^+CD25^+ T cells (which was given an arbitrary value of 1). […]

For `CO[C@H]1C[C@@H]2CC[C@@H](C)[C@@](O)(O2)C(=O)C(=O)N2CCCC[C@H]2C(=O)O[C@H]([C@H](C)C[C@@H]2CC[C@@H](O)[C@H](OC)C2)CC(=O)[C@H](C)/C=C(\C)[C@@H](O)[C@@H](OC)C(=O)[C@H](C)C[C@H](C)/C=C/C=C/C=C/1C` [rapamycin], the “increase of the CD4+CD25+ Tr cell content” value in assay [1] was 20 fold. The “apoptosis (AICD) upon in vitro activation” value in assay [2] is listed as “neither increase nor reduction of apoptosis was observed”. Moreover, the “kinetic of proliferation (fold expansion)” value is given as “delayed kinetic of proliferation compared to control cells” in [3] (APC+OVA, 100 nM rapamycin, weeks 1-3) and “delayed kinetic of proliferation compared to control cells” in assay [7] (100 nM rapamycin). Further, the “number of T cells recovered” value in [3] (end of the third week of culture) was “the same number of T cells was recovered in control- and rapamycin-cultures”. The “ability to proliferate on re-stimulation” value in assay [4] is on record as “retained their ability to proliferate”. Besides, the “cell size and shape” value in [5] was “smaller and displayed a more round-like shape than control cells”. Besides, the “enrichment in CD4+CD25bright T cells” value in assay [6] (T cells activated in the presence of rapamycin) was “highly enriched in”. Also, the “content of CD4+CD25bright Tr cells” value in [6] (cells exposed to rapamycin, 3 rounds APC+OVA) is “around 60%”. Besides, the “total number of CD4+CD25bright T cells recovered” value in assay [6] (three weeks of culture, repetitive Ag-stimulation) is “markedly superior to that of control cultures”. Moreover, in [7] (starting from the third week of culture), the expansion entry is given as “greatly expanded”. Besides, the “percentage of CD4+CD25bright T cells” value in assay [7] (three weeks, vs control cells) is “higher percentage of”. In addition, in [8], the “enrichment in CD4+CD62L+ and CD45RBlow cells” value is on record as “highly enriched in”. For the same compound, in [9] (after 3 rounds, re-stimulated without compound and IL-2), the T cell anergy entry is reported as “Does Not Induce T Cell Anergy”. Further, the “TCR-mediated proliferation of CD4+ T cells” value in assay [9] (anti-CD3+anti-CD28, 100 nM rapamycin) is “Strongly Reduces TCR-Mediated Proliferation”. In addition, the “TCR-mediated proliferation of CD4+CD25- vs CD4+CD25+ T cells” value in assay [10] is reported as “Selectively Blocks TCR-Mediated Proliferation of CD4^+CD25^− T Cells but not of CD4^+CD25^+ Tr Cells”. The FOXP3 expression result in assay [11] was “enhanced”.
